Assay results from patent US4311700A, “Pyrimidobenzodiazepinones, their use and medicaments containing them” (priority 1979, dated 1982).

Experiments:
Shay rats = assay: Antiulcerogenic action (protective action on the stomach) in Shay rats, pylorus ligature plus acetylsalicylic acid; assay type: in vivo, rat; conditions: for TQ LD50/ED50 (therapeutic quotient): LD50 i.v. mice / ED50 p.o. rats; for ED50: Rattus norvegicus, po, p.o. 1 hour before pylorus ligature, dose reducing ulcer index by 50% vs control, read-out: Protective action on the stomach ED50 administered perorally to rats
Method: The effect of the compounds according to the invention on the formation, in rats, of gastric ulcers provoked by a pylorus ligature and 100 mg/kg of acetylsalicyclic acid, (administered orally) is shown in table II.
ED50 = the dose which reduces the ulcer index for the group treated
by 50% compared with the control group
The anti-ulcerogenic action is tested by a method using the so-caled Shay rats:
(§1) Ulcers are provoked in rats which have been starved for 24 hours (female rats, 180 to 200 g, 4 animals in a cage with a high grille) by means of a pylorus ligature (under anaesthesia with diethyl ether) and oral administration of 100 mg/10 ml/kg of acetylsalicyclic acid. The substances to be tested are administered orally (10 ml/kg) 1 hour before the pylorus ligature. The closure of the wound is effected by means of Michel's clips. The animals are killed 4 hours afterwards under ether anaesthesia by dislocating the atlas, and the stomach is cut out. The stomach is opened longitudinally and is fixed on a cork slab, the quantity of gastric juice secreted (volume) and the hydrochloric acid content having been determined beforehand; the number and size (= diameter) of ulcers present are determined by means of a stereomicroscope at a 10-fold magnification. The product of the degree of severity (in accordance with the following rating scale) and the number of the ulcers is used as an individual ulcer index.
ulcer diameter 0.1-1.4 mm
The reduction in the average ulcer index in each group treated compared with that of the control group (=100%) is used as a measure of the anti-ulcerogenic effect. The ED50 indicates the dose which reduces the average ulcer index by 50%.

stomach secretion = assay: Inhibition of stomach secretion (volume and hydrochloric acid) in rats; assay type: in vivo, rat; conditions: 4 hours after administration of the antiulcerogenic ED50
Method: *% inhibition = inhibition (in %) of stomach secretion 4 hours after
administration of the antiulcerogenic ED50
as §1

[1] = Determination of toxicity, intravenous, mice; conditions: mouse, in vivo, i.v., female NMRI mice, 7 days observation, read-out: Toxicity LD50 administered intravenously to mice
Method: LD50 = the dose at which 50% of the animals die
The toxicity investigations are carried out on female NMRI mice (body weight 22 to 26 g). The animals (5 animals per dose) receive feed and water ad lib. Various doses of the substances are administered intravenously (duration of injection 1 minute). The observation period is 7 days. The LD50 (the dose at which 50% of the animals die) is determined by means of a linear regression.

Compound	TQ LD50/ED50 (therapeutic quotient) (Shay rats)	ED50 (Shay rats) [mg/kg]	anti-ulcerogenic action at high dose (Shay rats; even at 300 mg/kg, rats)	dose/action curve (dose dependence of the action) (Shay rats; rats, p.o.)	% inhibition of stomach secretion in rats, hydrochloric acid (stomach secretion) [%]	% inhibition of stomach secretion in rats, volume (stomach secretion) [%]	LD50 at 168 h [1] [mg/kg]	inhibitory effect (anti-ulcerogenic action) (Shay rats; 30 mg/kg, p.o., rats)
CC1(C)[C@@H](OC(=O)CCC(=O)O)CC[C@]2(C)[C@H]3C(=O)C=C4[C@@H]5C[C@@](C)(C(=O)O)CC[C@]5(C)CC[C@@]4(C)[C@]3(C)CC[C@@H]12 [Compound 1, Carbenoxolone, reference compound]	~ 4.1	~70	not possible to achieve any substantial increase in the anti-ulcerogenic action	the dose/action curve then flattens out very considerably	4	7	290	
CN1CCN(CC(=O)N2c3ccccc3NC(=O)c3cncnc32)CC1 [Compound 2, 11-[(4-Methyl-1-piperazinyl)acetyl]-5,6-dihydropyrimido[4,5-b][1,5]benzodiazepin-5-one]	15	12			5	10	180	
CN1CCN(CC(=O)N2c3ccccc3N(C)C(=O)c3cnc(-c4ccccc4)nc32)CC1 [Compound 3, 6-Methyl-11-[(4-methyl-1-piperazinyl)acetyl]-2-phenyl-5,6-dihydropyrimido[4,5-b][1,5]benzodiazepin-5-one]	10.5	9				7	95	
CN1C(=O)c2cnc(-c3ccccc3)nc2N(C(=O)CN2CCCCC2)c2ccccc21 [Compound 4, 6-Methyl-2-phenyl-11-piperidinoacetyl-5,6-dihydropyrimido[4,5-b][1,5]benzodiazepin-5-one]	~ 20	~8			22	32	160	
CN(C)CCN(C)CC(=O)N1c2ccccc2N(C)C(=O)c2cnc(-c3ccccc3)nc21 [Compound 5, 11-[N-(2-dimethylaminoethyl)-N-methylamino]acetyl-6-methyl-2-phenyl-5,6-dihydropyrimido[4,5-b][1,5]benzodiazepin-5-one]		< 10						up to 100%
